Like-named read-outs stand apart in the source and are kept apart here.
Key:
Sprague Dawley rats [1] = assay: Semi-quantitative histopathology of skin at injection site after ID zoledronic acid with or without rHuPH20; assay type: in vivo; design: key: —: Dash indicates no incidence of indicated finding; settings: rat ID, 4 days
Description: (§1) Nine to ten week old female Sprague Dawley rats, having approximate body weight of 200-250 grams, were employed for the study. One day prior to injection, rats were shaved and hair on the back and flank area were removed by Nair® cream (exposure less than 1 min to depilation cream) followed by deep wash with warm tap water. On the day of dosing, all rats were injected intradermally in flank area (one or two injection spots per side), with 0.1 or 0.2 mL as indicated of zoledronic acid solution, with or without rHuPH20, at each corresponding concentration as shown in study design table. Injection site appearance was observed and quantified by blind assessment each day following the injection until the end of the study, at which time animals were sacrificed and the skin around the dosing area as well as a part of the skin that was not effected by the dosing were collected and fixed in 10% neutral buffered formalin (NBF) and further embedded in paraffin, 5 μm sections were cut for H&E stain and histopathology evaluation.
Lesion area was calculated by the following formula: W×L×¼π. Quantitative results were analyzed using one-way analysis of variance (ANOVA) method, followed by Dunnett's comparison method (Prizm 4 program). […] Histopathologic findings were characterized by semi-quantitative analysis of necrosis and infiltration in the skin tissue. […]

Sprague Dawley rats [2] = assay: Injection site reaction recovery study (10 days) after ID ZA with or without rHuPH20; assay type: in vivo, rat
Description: Sprague Dawley rats were randomized to three groups of 4 rats each. ZA (0.1 ml at 0.1 mg/mL), either alone or supplemented with either 130 U/mL or 100,000 U/mL rHuPH20, was given via intradermal injection. Injection sites were observed and measured daily. Animals were sacrificed at 10 days post-injection and skin from lesion areas were dissected, fixed in 10% buffered formalin, embedded in paraffin and stained with H&E.

[3] = cited from earlier work; for IV MRT: IV […] infusion, calculated from published ZA PK data
Sprague Dawley rats [4] = assay: Semi-quantitative histopathology of skin at injection site after ID zoledronic acid with or without rHuPH20; assay type: in vivo; design: key to Necrosis: Mid-dermis / Infiltration: Focal / Infiltration: Muscular / Necrosis: Epidermis / Infiltration: Skin Diffuse / Infiltration: Muscle: —: Dash indicates no incidence of indicated finding; key to Infiltration: Skin Focal: —: Dash indicates no incidence of the indicated observation; settings: rat ID, 4 days
Description: as §1
Lesion area was calculated by the following formula: W×L×¼π. Quantitative results were analyzed using one-way analysis of variance (ANOVA) method, followed by Dunnett's comparison method (Prizm 4 program). The probability values of less than 0.05 (two-tailed) were used as the critical level of significance for all tests. Groups with a sample size of two were excluded from analysis. If the sample size was 2 for the control group, there were no statistical analyses at that interval for any of the groups. Histopathologic findings were characterized by semi-quantitative analysis of necrosis and infiltration in the skin tissue. The incidences of each finding were compared with control groups by Chi-square test.
Prior to ZA intradermal injection, rats were randomized by body weight into 7 groups of 1 or 2 rats per group (Table 2). Rats were injected with either 0.1 mL or 0.2 mL of each corresponding concentration intradermally at two separate locations on each shaved flank side for a total of 4 injections for each animal. Injection sites were observed daily post-injection for four days. Pictures of injection site reaction (ISR) area were captured by digital camera and lesion area was scored for induration, erythema, or ulceration. Two perpendicular diameters (width & length) of injection site lesion were measured by microcaliper. The lesion area was defined as the area bounded by the outer edge of the erythemic zone. Upon completion of the study, the animals were euthanized and skin at the injection site and from an untreated area of the back of the rat were excised, mounted flat onto a piece of cardboard, and placed in 10% NBF.
A series of experiments were conducted in which various dosing concentrations of rHuPH20 were tested for the ability to reduce acute injection site lesions. Prior to ZA intra-dermal injection, rats were randomized by body weight into 11 groups of 2 rats per group. Rats were injected intradermally with 0.1 mL of each co-formulated solution as shown in Table 5 and observed daily with ISR development assessed as in Section B. Four days after injection, rats were sacrificed and the skin at the injection site as well as untreated skin from the back was excised, mounted flat onto a piece of cardboard, and placed in 10% NBF. […]

Structure (SMILES): O=P(O)(O)C(O)(Cn1ccnc1)P(=O)(O)O [ZA, 1-hydroxy-2-(1H-imidazol-1-yl)ethylidene-1,1-bisphosphonic acid]
- Necrosis: Superficial dermis (Sprague Dawley rats [1]; ZA alone 0.05 mg/mL): —
- Necrosis: Superficial dermis (Sprague Dawley rats [1]; ZA alone 0.1 mg/mL): —
- time to peak lesion area (Sprague Dawley rats [2]; rat ID 0.1 ml, ZA 0.1 mg/mL alone or with 130 or 100,000 U/mL rHuPH20): 3 days
- histopathologic findings (Sprague Dawley rats [2]; rat ID, ZA 0.1 mg/mL alone, 10 days post-injection): scabbing, epidermal necrosis, infiltration, vessel dilation and hemorrhage
- IV MRT ([3]; adjusted to match SC dose 0.25 mg): 1.9010 h
- IV MRT ([3]; adjusted to match SC dose 0.5 mg): 2.2330 h
- IV MRT ([3]; adjusted to match SC dose 1 mg): 5.2494 h
- IV MRT ([3]; adjusted to match SC dose 5 mg): 9.1957 h
- terminal γ phase half-life (T½γ) ([3]; man, IV): ~146 h
- Infiltration: Muscle (Sprague Dawley rats [4]; ZA 0.05 mg/mL, rHuPH20 0 U/ml): —
- Infiltration: Skin Diffuse (Sprague Dawley rats [4]; ZA 0.05 mg/mL, rHuPH20 0 U/ml): —
- Necrosis: Epidermis (Sprague Dawley rats [4]; ZA 0.05 mg/mL, rHuPH20 0 U/ml): —
- Infiltration: Skin Focal (Sprague Dawley rats [4]; ZA 0.4 mg/mL, rHuPH20 0 U/ml): —
- Infiltration: Muscular (Sprague Dawley rats [4]; ZA alone 0.05 mg/mL): —
- Necrosis: Mid-dermis (Sprague Dawley rats [4]; ZA alone 0.05 mg/mL): —
- Infiltration: Focal (Sprague Dawley rats [4]; ZA alone 0.1 mg/mL): —
- Necrosis: Mid-dermis (Sprague Dawley rats [4]; ZA alone 0.1 mg/mL): —
- Infiltration: Focal (Sprague Dawley rats [4]; ZA alone 0.2 mg/mL): —
- Necrosis: Mid-dermis (Sprague Dawley rats [4]; ZA alone 0.2 mg/mL): —
- Infiltration: Focal (Sprague Dawley rats [4]; ZA alone 0.4 mg/mL): —
- Infiltration: Focal (Sprague Dawley rats [4]; ZA alone 0.6 mg/mL): —
- Infiltration: Focal (Sprague Dawley rats [4]; ZA alone 0.8 mg/mL): —
